# What was measured:
# Format in all cases: functional
# [1] = system: Mycobacterium tuberculosis; experiment: Antitubercular activity against Mycobacterium tuberculosis H37Rv assessed as reduction in microbial growth after 7 days by alamar blue assay; settings: 168 h
# Escherichia coli [2] = experiment: Antibacterial activity against Escherichia coli MTCC 443 assessed as diameter of zone of inhibition at 200 ug/ml after 24 hrs by agar well diffusion method; settings: MTCC 443, 24 h, read-out: DIZ
# Staphylococcus aureus [3] = experiment: Antibacterial activity against Staphylococcus aureus MTCC 96 assessed as reduction in microbial growth after 24 hrs by CLSI based microdilution method; settings: MTCC 96, 24 h
# Bacillus subtilis [4] = experiment: Antibacterial activity against Bacillus subtilis MTCC 441 assessed as diameter of zone of inhibition at 200 ug/ml after 24 hrs by agar well diffusion method; settings: MTCC 441, 24 h, read-out: DIZ
# Bacillus subtilis [5] = experiment: Antibacterial activity against Bacillus subtilis MTCC 441 assessed as reduction in microbial growth after 24 hrs by CLSI based microdilution method; settings: MTCC 441, 24 h
# [6] = system: Staphylococcus epidermidis; experiment: Antibacterial activity against Staphylococcus epidermidis assessed as diameter of zone of inhibition at 200 ug/ml after 24 hrs by agar well diffusion method; settings: read-out: DIZ
# Staphylococcus aureus [7] = experiment: Antibacterial activity against Staphylococcus aureus MTCC 96 assessed as diameter of zone of inhibition at 200 ug/ml after 24 hrs by agar well diffusion method; settings: MTCC 96, 24 h, read-out: DIZ
# Klebsiella pneumoniae [8] = experiment: Antibacterial activity against Klebsiella pneumoniae MTCC 618 assessed as diameter of zone of inhibition at 200 ug/ml after 24 hrs by agar well diffusion method; settings: MTCC 618, 24 h, read-out: DIZ
# [9] = system: Staphylococcus epidermidis; experiment: Antibacterial activity against Staphylococcus epidermidis assessed as reduction in microbial growth after 24 hrs by CLSI based microdilution method
# Pseudomonas aeruginosa [10] = experiment: Antibacterial activity against Pseudomonas aeruginosa MTCC 741 assessed as reduction in microbial growth after 24 hrs by CLSI based microdilution method; settings: MTCC 741, 24 h
# Klebsiella pneumoniae [11] = experiment: Antibacterial activity against Klebsiella pneumoniae MTCC 618 assessed as reduction in microbial growth after 24 hrs by CLSI based microdilution method; settings: MTCC 618, 24 h
# Pseudomonas aeruginosa [12] = experiment: Antibacterial activity against Pseudomonas aeruginosa MTCC 741 assessed as diameter of zone of inhibition at 200 ug/ml after 24 hrs by agar well diffusion method; settings: MTCC 741, 24 h, read-out: DIZ
# Escherichia coli [13] = experiment: Antibacterial activity against Escherichia coli MTCC 443 assessed as reduction in microbial growth after 24 hrs by CLSI based microdilution method; settings: MTCC 443, 24 h
# [14] = system: Mycobacterium tuberculosis; experiment: Antitubercular activity against Mycobacterium tuberculosis H37Rv assessed as log reduction in bacterial population at 10 ug/ml under starvation condition after 7 days by MPN assay
smiles,measurement,setting,value
CC(=O)c1c(O)c(C)c(O)c2c1OC1=CC(=O)/C(=C(/C)NCc3cn(CC(=O)c4ccc(-c5ccccc5)cc4)nn3)C(=O)C12C (stereo not drawn),MIC,[1],48.2 µM
CC(=O)c1c(O)c(C)c(O)c2c1OC1=CC(=O)/C(=C(/C)NCc3cn(CC(=O)c4ccc(C(F)(F)F)cc4)nn3)C(=O)C12C (stereo not drawn),MIC,[1],41 µM
CC(=O)c1c(O)c(C)c(O)c2c1OC1=CC(=O)/C(=C(/C)NCc3cn(CC(=O)c4ccc(Cl)s4)nn3)C(=O)C12C (stereo not drawn),MIC,[1],42.9 µM
CC1(C)S[C@@H]2[C@H](NC(=O)Cc3ccccc3)C(=O)N2[C@H]1C(=O)O [PENICILLIN G],zone of inhibition at 200 µg/mL,Escherichia coli [2],24 mm
same,MIC,Staphylococcus aureus [3],3.5 µM
same,zone of inhibition at 200 µg/mL,Bacillus subtilis [4],28 mm
same,MIC,Bacillus subtilis [5],3.5 µM
same,zone of inhibition at 200 µg/mL,[6],26 mm
same,zone of inhibition at 200 µg/mL,Staphylococcus aureus [7],28 mm
same,zone of inhibition at 200 µg/mL,Klebsiella pneumoniae [8],25 mm
same,MIC,[9],7 µM
same,MIC,Pseudomonas aeruginosa [10],27.8 µM
same,MIC,Klebsiella pneumoniae [11],27.8 µM
same,zone of inhibition at 200 µg/mL,Pseudomonas aeruginosa [12],23 mm
same,MIC,Escherichia coli [13],27.8 µM
CC(=O)c1c(O)c(C)c(O)c2c1OC1=CC(=O)/C(=C(/C)NCc3cn(CC(=O)c4ccc(F)cc4)nn3)C(=O)C12C (stereo not drawn),MIC,Staphylococcus aureus [3],> 350 µM
same,MIC,Bacillus subtilis [5],347 µM
same,MIC,[1],11.2 µM
same,MIC,[9],> 350 µM
same,MIC,Pseudomonas aeruginosa [10],> 350 µM
same,MIC,Klebsiella pneumoniae [11],> 350 µM
same,MIC,Escherichia coli [13],> 350 µM
CC(=O)c1c(O)c(C)c(O)c2c1OC1=CC(=O)/C(=C(/C)NCc3cn(CC(=O)c4ccc(Cl)cc4)nn3)C(=O)C12C (stereo not drawn),MIC,[1],10.8 µM
CC(=O)c1c(O)c(C)c(O)c2c1OC1=CC(=O)/C(=C(/C)NCc3cn(CC(=O)N4CCN(c5ccccc5F)CC4)nn3)C(=O)C12C (stereo not drawn),MIC,[1],9.7 µM
CN[C@@H]1[C@H](O[C@H]2[C@H](O[C@H]3[C@H](O)[C@@H](O)[C@H](N=C(N)N)[C@@H](O)[C@@H]3N=C(N)N)O[C@@H](C)[C@]2(O)C=O)O[C@@H](CO)[C@H](O)[C@H]1O [STREPTOMYCIN],zone of inhibition at 200 µg/mL,Escherichia coli [2],23 mm
same,MIC,Staphylococcus aureus [3],4 µM
same,zone of inhibition at 200 µg/mL,Bacillus subtilis [4],24 mm
same,MIC,Bacillus subtilis [5],8.1 µM
same,zone of inhibition at 200 µg/mL,[6],25 mm
same,zone of inhibition at 200 µg/mL,Staphylococcus aureus [7],23 mm
same,zone of inhibition at 200 µg/mL,Klebsiella pneumoniae [8],26 mm
same,MIC,[9],4 µM
same,MIC,Pseudomonas aeruginosa [10],8.1 µM
same,MIC,Klebsiella pneumoniae [11],8.1 µM
same,zone of inhibition at 200 µg/mL,Pseudomonas aeruginosa [12],28 mm
same,MIC,Escherichia coli [13],8.1 µM
CC(=O)c1c(O)c(C)c(O)c2c1OC1=CC(=O)/C(=C(/C)NCc3cn(CC(=O)N4CCN(c5ccccn5)CC4)nn3)C(=O)C12C (stereo not drawn),MIC,[1],39.8 µM
CC(=O)c1c(O)c(C)c(O)c2c1OC1=CC(=O)/C(=C(/C)NCc3cn(CC(=O)c4ccccc4)nn3)C(=O)C12C (stereo not drawn),MIC,[1],46.1 µM
O=C(O)c1cn(C2CC2)c2cc(N3CCNCC3)c(F)cc2c1=O [CIPROFLOXACIN],FC,[14],1.8
CC(=O)c1c(O)c(C)c(O)c2c1OC1=CC(=O)/C(=C(/C)NCc3cn(CC(=O)N4CCN(C(=O)OC(C)(C)C)CC4)nn3)C(=O)C12C (stereo not drawn),MIC,[1],38.4 µM
CC(=O)c1c(O)c(C)c(O)c2c1OC1=CC(=O)/C(=C(/C)NCc3cn(CC(=O)N4CCN(c5ccc(C(F)(F)F)cc5)CC4)nn3)C(=O)C12C (stereo not drawn),MIC,[1],36 µM
CC(=O)c1c(O)c(C)c(O)c2c1OC1=CC(=O)/C(=C(/C)NCc3cn(CC(=O)c4cccc5ccccc45)nn3)C(=O)C12C (stereo not drawn),MIC,[1],42.2 µM
CC(=O)c1c(O)c(C)c(O)c2c1OC1=CC(=O)/C(=C(/C)NCc3cn(CC(=O)c4ccc([N+](=O)[O-])cc4)nn3)C(=O)C12C (stereo not drawn),MIC,[1],42.6 µM
CC(=O)C1=C(O)C=C2Oc3c(C(C)=O)c(O)c(C)c(O)c3C2(C)C1=O (stereo not drawn),MIC,[1],35.6 µM
CC[C@@H](CO)NCCN[C@@H](CC)CO [ETHAMBUTOL],MIC,[1],7.6 µM
COc1ccc2cc(C(=O)Cn3cc(CN/C(C)=C4\C(=O)C=C5Oc6c(C(C)=O)c(O)c(C)c(O)c6C5(C)C4=O)nn3)ccc2c1 (stereo not drawn),MIC,[1],40.2 µM
CC(=O)c1c(O)c(C)c(O)c2c1OC1=CC(=O)/C(=C(/C)NCc3cn(CC(=O)c4ccc(Cl)c(Cl)c4)nn3)C(=O)C12C (stereo not drawn),MIC,[1],40.9 µM
CC(=O)c1c(O)c(C)c(O)c2c1OC1=CC(=O)/C(=C(/C)NCc3cn(CC(=O)c4ccc(Br)s4)nn3)C(=O)C12C (stereo not drawn),MIC,[1],39.8 µM

# Reference: ChEMBL document CHEMBL4342442, “Usnic Acid Enaminone-Coupled 1,2,3-Triazoles as Antibacterial and Antitubercular Agents” (J Nat Prod, 2020)
